Data published in patent US12606529B2, “Sulfur and amide tropolone inhibitors of nucleotidyl transferases and uses therefor” (Saint Louis University, priority 2019, dated 2026).
Values after ≈ are worked out from the molar mass of the structure shown. Where two headings read alike, the source gives them in different places.

Tests used:
[1] = system: C. neoformans var. grubii, KN99; test: C. neoformans growth inhibition assay (limiting dilution); assay type: cell-based, Cryptococcus neoformans; conditions: Cryptococcus neoformans
Protocol: Cell types used for C. neoformans studies. All inhibition assays were performed with C. neoformans var. grubii, KN99 (serotype A, MAT). Two clinical strains of C. neoformans var. grubii, serotype A, were provided by Tamara Doering and Andre Spec. […] Cells were diluted to OD650 0.001 in YNB-02 02 (0.67% yeast nitrogen base, 0.2% dextrose, pH 7.0 with 50 mM MOPs)+1% DMSO prior to addition to the plates for the inhibition assays.
C. neoformans growth inhibition assays. Compounds were tested in a limiting dilution assay with a starting optical density (at 650 nm) of 0.001 in YNB-02 plus 1% DMSO. Cells plus compound were incubated in 96-well clear round bottom plates covered with a Breath-easy® membrane without shaking for 48 hours at 35° C. Before measuring cell density, plates were shaken on a microtiter plate shaker at 900 rpm for 3 minutes to resuspend cells and optical density was measured at 650 nm. […] Each assay was done in triplicate and all values are the average of two or more independent assays. The data are presented as the average cell density as a percent of DMSO-only treated cells. MICs are reported as the minimal concentration needed to inhibit 80% of C. neoformans growth relative to vehicle-treated controls.

[2] = system: HSV-1; test: Anti-HSV-1 replication assay (Vero cells, plaque titer); assay type: cell-based, herpes simplex virus 1; conditions: for log reduction at 5 µM / log reduction at 0.33 µM / log reduction at 1 µM: Human alphaherpesvirus 1, Vero; for log reduction at 5 µM: compound at 5 μM; for log reduction at 0.33 µM: compound at 0.33 μM, read-out: HSV-1 suppression 0.33 μM; for log reduction at 1 µM: compound at 1 μM
[3] = system: HBV replication; test: HBV replication inhibition in HepDES19 cells (strand-preferential qPCR); conditions: for EC50: Hepatitis B virus
Protocol: Cells used for toxicity and HBV studies.
HBV replication inhibition studies. HepDES19 cells were seeded in 96-well plates at 4×10^4 cells per well in the absence of tetracycline. Test compounds in a final DMSO concentration of 1% were applied to cells 48 hours after induction of HBV replication and cells were incubated with compounds for 72 hours. Cells were washed in 200 μL of phosphate buffered saline (PBS) and lysed in 150 μL of core lysis buffer (10 mM Tris pH 7.4, 1% Tween20, 150 mM NaCl). Cells were incubated at room temperate on an orbital shaker at 350 rpm for 40 minutes. Cell lysate was transferred to a 96 well polymerase chain reaction (PCR) plate and centrifuged at 3300×g for 5 minutes. The supernatant (50 μL) from the cell lysate was transferred to a 96-well PCR plate and mixed with 20 units of micrococcal nuclease and 100 μM CaCl2. The lysate was incubated for 1 hour at 37° C., and then the nuclease was inactivated at 70° C. for ten minutes. Qiagen protease (0.005 Anson units) was added to the lysate and the mixture was incubated overnight. Qiagen protease was then inactivated at 95° C. for ten minutes.
The crude lysate was used as the template for strand-preferential quantitative polymerase chain reaction (q-PCR) analysis. Quantitative PCR was performed with 40 cycles of 95° C. for 15 s and 60° C. for 1 minute employing the Kappa Probe Force universal PCR master mix.

[4] = in vitro; conditions: human, HepDES19 cells
Protocol: Cells used for toxicity and HBV studies. […] Cells were maintained in Dulbecco's modified Eagle's medium (DMEM)/F12 media supplemented with 10% fetal bovine serum (FBS) and 1% penicillin/streptomycin (P/S) with 1 μg/mL tetracycline. Synchronized expression of HBV pgRNA was induced by removing tetracycline from the culture medium.
Cytotoxicity Assays. Qualitative assessments of cytotoxicity were done visually by inspecting the cells in the primary screening assays. […] The next day the compounds were added at 0.78 to 100 μM in a final concentration of 1% (v/v) DMSO, and the cells were incubated for 24 hours under conditions identical to those employed for the viral replication inhibition assays. Mitochondrial toxicity was measured by incubating the cells with 0.25 mg/mL thiazolyl blue tetrazolium bromide (MTT, SigmaAldrich Chemical Co.), the cultures were incubated for 60 mM, metabolites were solubilized in acidic isopropanol, and absorbance was read at 570 nm. CC50 values were calculated by non-linear curve fitting using GraphPad Prism using the three-parameter variable-response log(inhibitor)-versus-response algorithm with the bottom value set to zero.

[5] = biological target: T1, human RNaseH1 (Homo sapiens, UniProt O60930); test: Biochemical inhibition of human RNaseH1 activity
T1 sequence (O60930 1-286): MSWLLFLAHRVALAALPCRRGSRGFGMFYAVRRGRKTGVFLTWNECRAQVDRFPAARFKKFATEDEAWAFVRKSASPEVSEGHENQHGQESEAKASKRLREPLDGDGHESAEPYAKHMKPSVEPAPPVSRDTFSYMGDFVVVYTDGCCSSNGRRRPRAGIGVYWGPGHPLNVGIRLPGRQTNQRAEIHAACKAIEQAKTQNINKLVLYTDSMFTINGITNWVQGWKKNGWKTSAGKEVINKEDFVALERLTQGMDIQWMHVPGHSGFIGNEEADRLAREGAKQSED
Protocol: Biochemical inhibition of human RNaseH1 activity. Quantitative inhibition of the human RNaseH1 in the biochemical assays was assessed using a molecular beacon assay as described previously (Edwards et al., 2017). Recombinant human RNaseH 1 (0.3 μg) was incubated with 100 nM RNA:DNA substrate, 50 mM HEPES pH 8.0, 100 mM NaCl, 2 mM Tris(2-carboxyethyl)phosphine hydrochloride (TCEP), 0.05% Tween20, 5 units of RNaseOut, test compounds (0 to 500 μM), and 5% DMSO in a 100 μL reaction volume. The substrate was formed by annealing a complementary RNA oligonucleotide to a hairpin DNA oligonucleotide to hold the hairpin DNA oligonucleotide in an open conformation. The DNA oligonucleotide has a 5′ fluorescein reporter and a 3′ black hole quencher. When the RNA is degraded from the substrate the DNA oligonucleotide closes to form a hairpin structure, decreasing in signal intensity. Reactions were initiated with 5 mM MgCl2 and fluorescence was read using a Synergy HTS multi-mode plate reader at 37° C. Alternatively, the HBV RNaseH version used was MBP-HRHgtCΔ5, a genotype C isolate which lacks the C-terminal 35 amino acids of the HBV RNaseH domain that are predicted to be unstructured. Quantitative inhibition of the human RNaseH1 in biochemical assays was assessed using a FRET-based RNaseH assay under conditions previously reported for an RNaseH molecular beacon assay (Edwards et al., 2017). […] Cleavage of the RNA strand released the fluorescein from quenching, increasing fluorescence. Reactions were monitored for 90 min at 37° C. in a plate reader and initial reaction rates were calculated. Reactions contained escalating concentrations of the compounds.

[6] = 48 h, Table 3 sulfur compounds, 48 h, 35° C., read-out: C. neoformans MIC80
[7] = Table 3 sulfur compounds, values separated by / are repeats, read-out: HSV-1 suppression 5 μM
[8] = HepDES19, read-out: HBV EC50, Table 3 sulfur compounds, HBV replication, HepDES19 cells
[9] = CC50, Table 3 sulfur compounds, MTT
[10] = Table 3 sulfur compounds, values separated by / are repeats
[11] = read-out: MIC80 against C. neoformans
[12] = Table 3 sulfur compounds, values separated by / are repeats, read-out: HSV-1 suppression 1 μM
[13] = 48 h, Table 2 amides, 48 h, 35° C., tested 0.19 to 50 μM, read-out: C. neoformans MIC80
[14] = Table 2 amides, values separated by / are repeats, read-out: HSV-1 suppression 5 μM
[15] = Table 2 amides, read-out: HuRH1 IC50

Structure (SMILES)	MIC80 [1, 6]	log reduction at 5 µM [2, 7]	EC50 [3, 8]	CC50 at 24 h [4, 9]	log reduction at 1 µM [2, 12]	further results
CS(=O)(=O)c1cccc(O)c(=O)c1O [compound 387]	50 µM (≈ 10.8 µg/mL)	0.02	0.41 µM	–	–	EC50 ([3]; HepDES19, read-out: EC50 against HBV replication): 0.41 µM
CSc1ccc(SC)c(O)c(=O)c1O [compound 386]	24 µM (≈ 5.53 µg/mL)	0.51	6.73 µM	68.9 µM	–	–
Cc1cc(O)c(=O)c(O)cc1S(=O)(=O)c1ccccc1 [compound 336]	50 µM (≈ 14.6 µg/mL)	1.57	0.68 µM	–	–	log reduction at 0.33 µM [2, 10]: 0.13
Cc1cc(O)c(=O)c(O)cc1S(=O)(=O)c1ccc(-c2ccccc2)cc1 [compound 337]	50 µM (≈ 18.4 µg/mL)	–	5.73 µM	47.4 µM	–	log reduction at 0.33 µM [2, 10]: 0.28
O=c1c(O)cccc(SCc2ccccc2)c1O [compound 702]	0.56 µM (≈ 0.146 µg/mL)	5.79	25 µM	–	3.23	MIC80 [1, 11]: ≤ 1 µM; log reduction at 0.33 µM [2, 10]: 0.13; IC50 ([5]; Table 3 sulfur compounds, read-out: Hu RNaseH IC50): 31.7 µM
O=c1c(O)c(S(=O)(=O)Cc2ccccc2)ccc(S(=O)(=O)Cc2ccccc2)c1O [compound 706]	49 µM (≈ 21.9 µg/mL)	0.59	51.4 µM	73 µM	–	–
CC(C)S(=O)(=O)c1ccc(S(=O)(=O)C(C)C)c(O)c(=O)c1O [compound 538]	50 µM (≈ 17.5 µg/mL)	0.21	50 µM	100 µM	0.74	CC50 at 24 h ([4]; CC50): 100 µM
O=c1c(O)cccc(S(=O)(=O)c2ccccc2)c1O [compound 408]	50 µM (≈ 13.9 µg/mL)	0.56	11.1 µM	20.4 µM	–	–
CC(C)Sc1cccc(O)c(=O)c1O [compound 695]	1.6 µM (≈ 0.34 µg/mL)	2.28	26.8 µM	21.1 µM	-0.23	–
CC(C)Sc1ccc(SC(C)C)c(O)c(=O)c1O [compound 696]	1.4 µM (≈ 0.401 µg/mL)	5.82	12.7 µM	9.3 µM	0.08	log reduction at 0.33 µM [2, 10]: -0.06
Cc1ccc(S(=O)(=O)c2cccc(O)c(=O)c2O)cc1 [compound 697]	49 µM (≈ 14.3 µg/mL)	0.01	49.1 µM	35.3 µM	–	–
CC(C)S(=O)(=O)c1cccc(O)c(=O)c1O [compound 537]	50 µM (≈ 12.2 µg/mL)	–	0.51 µM	20.6 µM	0.25	Therapeutic index (CC50/EC50) for HBV (TI, SI) [3]: 41
CSc1cccc(O)c(=O)c1O [compound 385]	24 µM (≈ 4.42 µg/mL)	2.5	4.4 µM	100 µM	–	CC50 at 24 h ([4]; CC50): 100 µM
CCCCS(=O)(=O)c1cccc(O)c(=O)c1O [compound 535]	50 µM (≈ 12.9 µg/mL)	–	2.02 µM	19.2 µM	0.07	–
Cc1ccc(S(=O)(=O)c2cc(O)c(=O)c(O)cc2C)cc1 [compound 367]	24 µM (≈ 7.35 µg/mL)	0.49	16.1 µM	23 µM	0	–
CCCCS(=O)(=O)c1ccc(S(=O)(=O)CCCC)c(O)c(=O)c1O [compound 536]	50 µM (≈ 18.9 µg/mL)	0.35	50 µM	100 µM	0.09	CC50 at 24 h ([4]; CC50): 100 µM
CCCCCCSc1ccc(SCCCCCC)c(O)c(=O)c1O [compound 841]	–	–	10.7 µM	7.8 µM	–	MIC80 ([1]; 48 h, read-out: C. neoformans MIC80, Table 3 sulfur compounds, 48 h, 35° C.): 5 µM (≈ 1.85 µg/mL); log reduction at 1 µM ([2]; read-out: HSV-1 suppression 1 μM, Table 3 sulfur compounds, values separated by / are repeats): 4.99; log reduction at 5 µM ([2]; read-out: HSV-1 suppression 5 μM, Table 3 sulfur compounds, values separated by / are repeats): 4.77
CCCCSc1cccc(O)c(=O)c1O [compound 693]	0.9 µM (≈ 0.204 µg/mL)	5.64	47.3 µM	13.5 µM	0.25	MIC80 [1, 11]: ≤ 1 µM
CS(=O)(=O)c1ccc(O)c(=O)c(O)c1 [compound 382]	50 µM (≈ 10.8 µg/mL)	–	0.58 µM	79.5 µM	–	Therapeutic index (CC50/EC50) for HBV (TI, SI) [3]: 136
Cc1cc(O)c(=O)c(O)cc1C(=O)NCc1ccc(Oc2ccccc2)cc1 [compound 807]	–	–	–	–	–	MIC80 [1, 13]: 4.5 µM (≈ 1.7 µg/mL); log reduction at 0.33 µM ([2]; Table 2 amides): 0.0714; log reduction at 1 µM ([2]; Table 2 amides, values separated by / are repeats, read-out: HSV-1 suppression 1 μM): -0.11; log reduction at 5 µM [2, 14]: 4.54; CC50 at 24 h ([4]; CC50 (μM), Table 2 amides, MTT): 6 ± 6.5 µM; IC50 [5, 15]: 799 ± 403 µM
Cc1cc(O)c(=O)c(O)cc1C(=O)NCc1ccccc1 [compound 388]	–	–	–	–	–	MIC80 [1, 13]: 9 µM (≈ 2.57 µg/mL); log reduction at 5 µM [2, 14]: 0.05; CC50 at 24 h ([4]; CC50 (μM), Table 2 amides, MTT): 19.8 ± 3 µM; IC50 [5, 15]: 166 ± 104 µM
CCCCCCS(=O)(=O)c1ccc(S(=O)(=O)CCCCCC)c(O)c(=O)c1O [compound 700]	50 µM (≈ 21.7 µg/mL)	2.01	49.8 µM	46 µM	0.57	log reduction at 0.33 µM [2, 10]: 0.49; Inhibition of HSV-1 ([2]; in words): showed inhibition of HSV-1
CCCCCCS(=O)(=O)c1cccc(O)c(=O)c1O [compound 699]	10 µM (≈ 2.86 µg/mL)	4.39	6.83 µM	13.1 µM	0.2	–
Cc1cc(O)c(=O)c(O)cc1C(=O)NC(CCC(=O)OC(C)(C)C)C(=O)OC(C)(C)C (stereo not shown) [compound 867]	–	–	–	–	–	MIC80 [1, 13]: 4.3 µM (≈ 1.88 µg/mL); log reduction at 5 µM [2, 14]: 3.49; CC50 at 24 h ([4]; CC50 (μM), Table 2 amides, MTT): 5.2 ± 1.3 µM; IC50 [5, 15]: 675 ± 563 µM
